From patent publication US20160304957A1, “TREATMENT AND MODULATION OF GENE EXPRESSION AND SKIN AGING” (DSM NUTRITIONAL PRODUCTS LTD., priority 2006, published 2016)

Test system: HaCaT human keratinocytes
Test: Affymetrix GeneChip microarray, transcriptional response to β-carotene and/or UVA
Type: cell-based
Conditions: β-carotene 1.5 μM
Procedure: The cell culture experiments were carried out as described. Briefly, a subclone of passage 65 HaCaT keratinocytes, selected for differentiation capacity, was used at passages 16 to 23 after subcloning. 2×10^5 cells were seeded per 60 millimeter dish. Starting the following day, the cells were pretreated for 2 days with β-carotene at 1.5 μM, a typical concentration in human plasma after moderate dietary supplementation)
β-carotene-containing medium was prepared as follows. Fresh all-E-β-carotene (DSM Nutritional Products, Kaiseraugst, Switzerland) stock solution in THF (containing 0.025% BHT; Fluka Chemie A G, Switzerland) was diluted 1:2 with ethanol and added to cell culture medium to a final concentration of 1.5 μM β-carotene. The solvent concentration in the medium was 0.5% for all treatments. β-carotene-containing medium was prepared fresh for the daily medium changes.
On day 3 of the experiment, the cells were irradiated with a Hönle sun lamp Sol 500 (270 kJ/m^2; Dr. Hönle, Germany).
Five independent, factorially designed cell irradiation experiments were analyzed by microarray hybridization. For each experiment, one chip was hybridized per treatment condition. GeneChip® analysis was done as described in [132], which is incorporated by reference, as if recited in full herein. Gene regulation by β-carotene and/or UVA was calculated relative to placebo.
Changes in gene expression were included in further analysis only if the change factor was […], and if unpaired t-tests yielded p values≦0.05. Upregulations by a […] are labeled bold, downregulations by a change factor of […] are labeled bold italics. (Table 1) To identify the pathways affected by the treatments functional information on the genes was retrieved from public literature databases.

Compound: CC1=C(/C=C/C(C)=C/C=C/C(C)=C/C=C/C=C(C)/C=C/C=C(C)/C=C/C2=C(C)CCCC2(C)C)C(C)(C)CCC1 [β-carotene, All-E-β-carotene]
- UVA induction of MMP-10, microarray (5 hours after UVA, UVA alone 4.6 fold): 3.2 fold
- 5-aminolevulinate synthase (Y00451) change factor (unirradiated): 0.08
- AAC11 (U83857) change factor (unirradiated): −0.6
- AP-2α (M36711) change factor (unirradiated): −0.02
- ATF4; activating transcription factor 4 (AL022312) change factor (unirradiated): 0.11
- BAXγ (L22475) change factor (unirradiated): 0.8
- BAXδ (U19599) change factor (unirradiated): 0.6
- BMP2a; bone morphogenetic protein 2a (bmp-2a) (M22489) change factor (unirradiated): −1.2
- BPAG1; bullous pemphigoid antigen (M69225) change factor (unirradiated): −0.5
- BUB1; mitotic checkpoint kinase (AF053305) change factor (unirradiated): −0.5
- C-FOS (V01512) change factor (unirradiated): −0.14
- C-FOS (V01512, second entry) change factor (unirradiated): −0.16
- C-JUN (J04111) change factor (unirradiated): −0.06
- C/EBPβ; NF-IL6 (X52560) change factor (unirradiated): −0.28
- C/EBPγ (U20240) change factor (unirradiated): −0.09
- C/EBPδ; NF-IL6-β (M83667) change factor (unirradiated): 0.04
- CDK activating kinase (X77743) change factor (unirradiated): −0.01
- CDK-inhibitor p57KIP2 (KIP2) mrna (U22398) change factor (unirradiated): −0.22
- CENP-A; centromere protein-A (U14518) change factor (unirradiated): −0.13
- CENP-E; centromere protein-E (Z15005) change factor (unirradiated): −0.37
- CENP-F; mitosin (U30872) change factor (unirradiated): −0.42
- CEP110; centriole associated protein (AF083322) change factor (unirradiated): 0.15
- CIP2; CDKN3 (L25876) change factor (unirradiated): −0.18
- CLARP; CFLAR, alternatively spliced (AF005775) change factor (unirradiated): −0.09
- COUP-TF II; ARP1; apoA1 regulatory protein (M64497) change factor (unirradiated): 0.33
- COX-2, cyclooxygenase-2 (U04636) change factor (unirradiated): −1.2
- CRADD; death domain containing protein (U84388) change factor (unirradiated): −0.25
- DKK-1; dickkopf-1 (AB020315) change factor (unirradiated): −0.3
- DNA ligase III (X84740) change factor (unirradiated): −0.5
- DNA polymerase α-subunit (X06745) change factor (unirradiated): −0.43
- DNA primase (subunit p58) (X74331) change factor (unirradiated): −0.16
- DNA-PK, catalytic subunit (U47077) change factor (unirradiated): −0.7
- DSC2; desmocollin type 2a and 2b (X56807) change factor (unirradiated): −1.1
- DUSP5 (U15932) change factor (unirradiated): −0.15
- DUSP7 (X93921) change factor (unirradiated): −0.46
- EGFR; precursor of epidermal growth factor receptor (X00588) change factor (unirradiated): −0.6
- ENDOGL-2 (AB020735) change factor (unirradiated): 0.8
- ERBB3 precursor; similar to (H06628) change factor (unirradiated): 0
- ERCC5; excision repair protein (L20046) change factor (unirradiated): −0.48
- ERF-2 (X78992) change factor (unirradiated): 0.31
- FGFR2; FGF receptor 2 (M87770) change factor (unirradiated): 0.08
- FGFR3; FGF receptor (M64347) change factor (unirradiated): −1.1
- FRA-1 (X16707) change factor (unirradiated): 0.14
- FRA-2 (X16706) change factor (unirradiated): −0.7
- GADD34 (U83981) change factor (unirradiated): −0.11
- GADD153 (S62138) change factor (unirradiated): −0.45
- GDF-1; growth/differentiation factor 1 (gdf-1) (M62302) change factor (unirradiated): −0.8
- GEM (U10550) change factor (unirradiated): −2.6
- HB-EGF; heparin-binding egf-like growth factor (M60278) change factor (unirradiated): 0.33
- HER3; epidermal growth factor receptor (her3) (M34309) change factor (unirradiated): −0.28
- HER3; epidermal growth factor receptor (her3) (M34309, second entry) change factor (unirradiated): −0.6
- HM74; PAR1-related (D10923) change factor (unirradiated): 0.18
- HOXA7 (AJj005814) change factor (unirradiated): −0.43
- HOXC6 (S82986) change factor (unirradiated): −0.07
- HOXD4 (X59373) change factor (unirradiated): −0.5
- ID1 (X77956) change factor (unirradiated): −0.01
- ID1 (X77956, second entry) change factor (unirradiated): −0.11
- ID3; HEIR1 (AL021154) change factor (unirradiated): −0.43
- ID-2H (D13891) change factor (unirradiated): −0.7
- ID-4 (AL022726) change factor (unirradiated): −0.08
- IEX-1 (S81914) change factor (unirradiated): −0.08
- IFIT1; IFI56 (M24594) change factor (unirradiated): 0
- IFIT1; IFI56 (M24594, second entry) change factor (unirradiated): 0.05
- IFIT2; ISG-54K (M14660) change factor (unirradiated): 0.18
- IFIT2; ISG-54K (M14660, second entry) change factor (unirradiated): −0.21
- IFIT4; IFI60; cig5; RIGG (AF026941) change factor (unirradiated): −0.23
- IGF-BP 3; insulin-like growth factor-binding protein-3 gene (M35878) change factor (unirradiated): 0.29
- IGF-BP 3; insulin-like growth factor-binding protein-3 gene (M35878, second entry) change factor (unirradiated): 0.22
- IL6; Interleukin 6; IFNβα2a (X04430) change factor (unirradiated): 0.6
- IL18; IGIF (IFNγ inducing factor) (D49950) change factor (unirradiated): −0.8
- ILK; integrin-linked kinase (U40282) change factor (unirradiated): −0.23
- IRF-1; interferon regulatory factor 1 (L05072) change factor (unirradiated): 0.16
- IRF-7b; interferon regulatory factor 7b (U53831) change factor (unirradiated): 0.16
- IRF-9; p48; ISGF3γ (M97935) change factor (unirradiated): −0.18
- JUNB (M29039) change factor (unirradiated): −0.38
- JUNB (X51345) change factor (unirradiated): −0.5
- JUND (X56681) change factor (unirradiated): 0.6
- JUND (X56681, second entry) change factor (unirradiated): 0.01
- JUND (X56681, third entry) change factor (unirradiated): 0
- K-RAS (M54968) change factor (unirradiated): −0.6
- KINESIN-LIKE 2; HSET (AL021366) change factor (unirradiated): −0.34
- KINESIN-LIKE 2; HSET (D14678) change factor (unirradiated): −0.04
- KINESIN-LIKE 2; HSET (D14678, second entry) change factor (unirradiated): 0.03
- KINESIN-LIKE 5; KNSL5; MKLP-1; mitotic kinesin-like protein-1 (X67155) change factor (unirradiated): −0.15
- KINESIN-LIKE 6; KNSL6; MCAK; mitotic centromere-associated kinesin (U63743) change factor (unirradiated): −0.15
- KINESIN_LIKE 1; KNSL1; HKSP; EG5 (U37426) change factor (unirradiated): −0.04
- KLF4; EZF (epithelial Zn finger) (U70663) change factor (unirradiated): −0.17
- KRS-2; stress responsive serine/threonine protein kinase (U60207) change factor (unirradiated): −0.8
- KU (p70/p80) (M30938) change factor (unirradiated): −0.18
- LIM kinase 2 (limk-2) (D45906) change factor (unirradiated): −0.3
- Lekti (AJ228139) change factor (unirradiated): 0.48
- MAD3L; mitotic checkpoint kinase (AF053306) change factor (unirradiated): −0.18
- MAF-F (AL021977) change factor (unirradiated): −0.26
- MAP kinase phosphatase (mkp-2) (U48807) change factor (unirradiated): 0
- MAPK9; JNK2 (U09759) change factor (unirradiated): −0.36
- MAPK14; p38; csaids binding protein (csbp1) (L35263) change factor (unirradiated): −0.38
- MAPKK3b; MKK3b (D87116) change factor (unirradiated): −0.06
- MAPKK MEK5b (U71087) change factor (unirradiated): −0.16
- MAPKKK5; ASK1 (U67156) change factor (unirradiated): −0.06
- MEIS2 (AF017418) change factor (unirradiated): 0.26
- MMP10 (X07820) change factor (unirradiated): −1.3
- MMP-1 (M13509) change factor (unirradiated): −1.61
- MMP-3 (X05232) change factor (unirradiated): −0.46
